According to patent US20250195463A1, “ORGANOMETALLIC COMPLEX, CONTROLLED-RELEASE MULTI-FUNCTIONAL DRUG, PHARMACEUTICAL COMPOSITION, PROCESSES FOR THE PREPARATION THEREOF AND THEIR USE” (FACULDADE DE CIÊNCIAS DA UNIVERSIDADE DE LISBOA, priority 2022, published 2025):
Read-outs that look alike come from different tables or passages of the source.

Columns and labels:
MDA-MB-231 (FGFR−) = test: MTT cytotoxicity assay; conditions: for IC50: read-out: Cytotoxic activity expressed as IC50, 48 h, 37° C.
Summary of the method: (§1)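 Cells were exposed continuously for 48 h at 37 °C to compounds at 0.1 to 100 μM. In pH-controlled runs, RuPC1 stock was pre-incubated 48 h at pH 6.8 or 7.4, then tested at 0.1 to 50 μM. Viability was read by MTT (0.5 mg/mL, 3 h) absorbance at 570 nm versus untreated cells, with IC50 fitted.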

MDA-MB-134-VI (FGFR+) = test: MTT cytotoxicity assay; conditions: read-out: Cytotoxic activity expressed as IC50; Table 6; MDA-MB-134-VI (FGFR+); 48 h, 37° C.
Summary of the method: as §1

SK-BR-3 (FGFR+) = test: MTT cytotoxicity assay; conditions: read-out: Cytotoxic activity expressed as IC50; Table 6; SK-BR-3 (FGFR+); 48 h, 37° C.
Summary of the method: as §1

MCF-7 (FGFR−) = test: MTT cytotoxicity assay; conditions: read-out: Cytotoxic activity expressed as IC50; Table 6; MCF-7 (FGFR−); 48 h, 37° C.
Summary of the method: as §1

[1] = Stability in organic medium (dimethyl sulfoxide) by UV-Vis spectroscopy; assay type: physicochemical; conditions: for Relative variation of the maximum absorbance of the π→π* transitions: band 289-300 nm (λmax in column head); for Relative variation of the maximum absorbance of the charge transfer bands: band 357-425 nm (λmax in column head)
Summary of the method: (§2)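 UV-Vis spectra (270-900 nm) were recorded at intervals from 0 to 24 h, at room temperature in the dark. Solvents were 100% DMSO, or 5% or 10% DMSO in DMEM depending on complex, at 7.0×10^-5 M to 3.0×10^-4 M.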

[2] = Stability in aqueous medium (dimethyl sulfoxide/Dulbecco's Modified Eagle Medium) by UV-Vis spectroscopy; assay type: physicochemical; conditions: 5% dimethyl sulfoxide/95% Dulbecco's Modified Eagle Medium; for Relative variation of the maximum absorbance of the π→π* transitions: band 292-296 nm (λmax in column head); for Relative variation of the maximum absorbance of the charge transfer bands: band 358-400 nm (λmax in column head)
Summary of the method: as §2

SMILES: NNC(=O)C1=C[CH]([Ru-]2([PH](c3ccccc3)(c3ccccc3)c3ccccc3)[n+]3ccccc3-c3cccc[n+]32)C=C1.O=S(=O)([O-])C(F)(F)F (centres unmarked) [compound 4]
- IC50 range in words (MDA-MB-231 (FGFR−); MDA-MB-231, Example 24): low micromolar range
- IC50 (MDA-MB-231 (FGFR−); Table 5, MDA-MB-231): 7.1 µM
- IC50 (MDA-MB-231 (FGFR−); Table 6, MDA-MB-231 (FGFR−)): 6.1 ± 1.3 µM
- IC50 (MDA-MB-134-VI (FGFR+)): 7.1 ± 1.3 µM
- IC50 (SK-BR-3 (FGFR+)): 7.5 ± 1 µM
- IC50 (MCF-7 (FGFR−)): 5.8 ± 0.8 µM
- Relative variation of the maximum absorbance of the π→π* transitions ([1]; time 0 h): 0.0%
- Relative variation of the maximum absorbance of the charge transfer bands ([1]; time 0 h): 0.0%
- Relative variation of the maximum absorbance of the π→π* transitions ([1]; time 0.25 h): 0.3%
- Relative variation of the maximum absorbance of the charge transfer bands ([1]; time 0.25 h): 0.0%
- Relative variation of the maximum absorbance of the π→π* transitions ([1]; time 0.5 h): 0.3%
- Relative variation of the maximum absorbance of the charge transfer bands ([1]; time 0.5 h): −0.1%
- Relative variation of the maximum absorbance of the π→π* transitions ([1]; time 0.75 h): 0.3%
- Relative variation of the maximum absorbance of the charge transfer bands ([1]; time 0.75 h): −0.2%
- Relative variation of the maximum absorbance of the π→π* transitions ([1]; time 1 h): 0.5%
- Relative variation of the maximum absorbance of the charge transfer bands ([1]; time 1 h): 0.1%
- Relative variation of the maximum absorbance of the π→π* transitions ([1]; time 2 h): 0.4%
- Relative variation of the maximum absorbance of the charge transfer bands ([1]; time 2 h): −0.2%
- Relative variation of the maximum absorbance of the π→π* transitions ([1]; time 3 h): 0.6%
- Relative variation of the maximum absorbance of the charge transfer bands ([1]; time 3 h): 0.2%
- Relative variation of the maximum absorbance of the π→π* transitions ([1]; time 4 h): 0.7%
- Relative variation of the maximum absorbance of the charge transfer bands ([1]; time 4 h): 0.9%
- Relative variation of the maximum absorbance of the π→π* transitions ([1]; time 5 h): −0.3%
- Relative variation of the maximum absorbance of the charge transfer bands ([1]; time 5 h): 1.0%
- Relative variation of the maximum absorbance of the π→π* transitions ([1]; time 6 h): −0.2%
- Relative variation of the maximum absorbance of the charge transfer bands ([1]; time 6 h): 0.6%
- Relative variation of the maximum absorbance of the π→π* transitions ([1]; time 24 h): −0.2%
- Relative variation of the maximum absorbance of the charge transfer bands ([1]; time 24 h): 1.6%
- Relative variation of the maximum absorbance of the π→π* transitions ([2]; time 0 h): 0.0%
- Relative variation of the maximum absorbance of the charge transfer bands ([2]; time 0 h): 0.0%
- Relative variation of the maximum absorbance of the π→π* transitions ([2]; time 0.25 h): 0.1%
- Relative variation of the maximum absorbance of the charge transfer bands ([2]; time 0.25 h): −0.2%
- Relative variation of the maximum absorbance of the π→π* transitions ([2]; time 0.5 h): 0.1%
- Relative variation of the maximum absorbance of the charge transfer bands ([2]; time 0.5 h): −0.7%
- Relative variation of the maximum absorbance of the π→π* transitions ([2]; time 0.75 h): −0.4%
- Relative variation of the maximum absorbance of the charge transfer bands ([2]; time 0.75 h): −1.3%
- Relative variation of the maximum absorbance of the π→π* transitions ([2]; time 1 h): −0.3%
- Relative variation of the maximum absorbance of the charge transfer bands ([2]; time 1 h): −0.9%
- Relative variation of the maximum absorbance of the π→π* transitions ([2]; time 2 h): −0.6%
- Relative variation of the maximum absorbance of the charge transfer bands ([2]; time 2 h): −0.7%
- Relative variation of the maximum absorbance of the π→π* transitions ([2]; time 3 h): −0.9%
- Relative variation of the maximum absorbance of the charge transfer bands ([2]; time 3 h): −1.4%
- Relative variation of the maximum absorbance of the π→π* transitions ([2]; time 4 h): −1.2%
- Relative variation of the maximum absorbance of the charge transfer bands ([2]; time 4 h): −0.7%
- Relative variation of the maximum absorbance of the π→π* transitions ([2]; time 5 h): −1.5%
- Relative variation of the maximum absorbance of the charge transfer bands ([2]; time 5 h): −2.1%
- Relative variation of the maximum absorbance of the π→π* transitions ([2]; time 6 h): −1.7%
- Relative variation of the maximum absorbance of the charge transfer bands ([2]; time 6 h): −2.3%
- Relative variation of the maximum absorbance of the π→π* transitions ([2]; time 24 h): 0.1%
- Relative variation of the maximum absorbance of the charge transfer bands ([2]; time 24 h): 3.0%
